The text below walks through data of patent US20250368649A1, “TETRAHYDROPYRIDOPYRIMIDINE PAN-KRAS INHIBITORS” (Mirati Therapeutics, Inc., priority 2022, published 2025).

The test system of one test is ASPC1 cells. Kind of test: Inhibition of KRas-mediated phosphorylation of ERK (Cisbio HTRF pERK), ASPC1 cells. The following applies: Homo sapiens, AsPC-1 cells; for IC50: ASPC1, 3 h, 3 hr compound incubation; for inhibition at 0.1 µM: ASPC1, single point at 100 nM, 3 hrs compound incubation. In kind it is cell-based.
A further test concerns H727 cells. In words: Inhibition of KRas-mediated phosphorylation of ERK (Cisbio HTRF pERK), H727 cells. The test is classed as cell-based. The following applies: Homo sapiens; for IC50: NCI-H727, 3 h, 3 hr compound incubation; for inhibition at 0.1 µM: NCI-H727, single point at 100 nM, 3 hrs compound incubation. A general note: In TR-FRET formats the signal depends on donor and acceptor labels being close together.

In the next test the test system is A549 cells. In words: Inhibition of KRas-mediated phosphorylation of ERK (Cisbio HTRF pERK), A549 cells. The test is classed as cell-based. The following applies: Homo sapiens; for IC50: A549, 3 h, 3 hr compound incubation.
A further test has as its system H460 cells. In words: Inhibition of KRas-mediated phosphorylation of ERK (Cisbio HTRF pERK), H460 cells. In kind it is cell-based. The following applies: Homo sapiens; for inhibition at 0.1 µM: NCI-H460, single point at 100 nM, 3 hrs compound incubation; for IC50: NCI-H460, 3 h, 3 hr compound incubation.
Another test has as its system HCT116 cells. In words: Inhibition of KRas-mediated phosphorylation of ERK (Cisbio HTRF pERK), HCT116 cells. In kind it is cell-based. The following applies: Homo sapiens; for inhibition at 0.1 µM: HCT-116, single point at 100 nM, 3 hrs compound incubation; for IC50: HCT-116, 3 h, 3 hr compound incubation.
The subject of a further test is H358 cells. Kind of test: Inhibition of KRas-mediated phosphorylation of ERK (Cisbio HTRF pERK), H358 cells. The test is classed as cell-based. The following applies: Homo sapiens.
For another test, the target named is KRas G12D (Homo sapiens, UniProt P01116, G12D). Kind of test: biochemical. The following applies: Binding to KRas (IC50 nM) G12D.
The target in a further test is KRas G12R (Homo sapiens, UniProt P01116, G12R). In words: biochemical. The following applies: Binding to KRas (IC50 nM) G12R.
The next test has as its target KRas G12V (Homo sapiens, UniProt P01116, G12V). Kind of test: biochemical. The following applies: Binding to KRas (IC50 nM) G12V.
Where [1] appears, read: TR-FRET displacement, KRas G12D.
[2] abbreviates: TR-FRET displacement, KRas G12R.
Where [3] appears, read: TR-FRET displacement, KRas G12V.

Sequence of KRas G12V (P01116 1-169 isoform P01116-2 G12V): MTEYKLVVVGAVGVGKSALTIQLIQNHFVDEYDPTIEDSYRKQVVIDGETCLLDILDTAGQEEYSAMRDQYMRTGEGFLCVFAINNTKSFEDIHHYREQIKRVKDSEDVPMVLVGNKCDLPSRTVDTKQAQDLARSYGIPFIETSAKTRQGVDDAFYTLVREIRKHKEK
Sequence of KRas G12D (P01116 1-169 isoform P01116-2 G12D): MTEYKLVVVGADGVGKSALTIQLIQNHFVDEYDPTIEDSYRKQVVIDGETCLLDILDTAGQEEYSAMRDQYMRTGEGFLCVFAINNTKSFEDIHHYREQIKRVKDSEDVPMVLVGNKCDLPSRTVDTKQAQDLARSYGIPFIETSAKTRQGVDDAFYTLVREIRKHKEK
Sequence of KRas G12R (P01116 1-169 isoform P01116-2 G12R): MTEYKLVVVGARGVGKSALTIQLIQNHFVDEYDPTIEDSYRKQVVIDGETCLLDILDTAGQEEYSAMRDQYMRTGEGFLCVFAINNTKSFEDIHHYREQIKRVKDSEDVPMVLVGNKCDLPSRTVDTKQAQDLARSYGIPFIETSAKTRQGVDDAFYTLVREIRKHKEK

Regarding `CCc1c(F)ccc2cc(O)cc(N3CCc4c(nc(OC[C@@]56CCCN5C[C@H](F)C6)nc4N4CCOCC5(CCO5)C4)C3)c12` (stereo partly drawn) [Example 249, 5-ethyl-6-fluoro-4-(2-(((2R,7aS)-2-fluorohexahydro-1H-pyrrolizin-7a-yl)methoxy)-4-(1,6-dioxa-9-azaspiro[3.6]decan-9-yl)-5,6-dihydropyrido[3,4-d]pyrimidin-7(8H)-yl)naphthalen-2-ol], the half-maximal inhibitory concentration (IC50) – broadly, the concentration needed to halve the response being measured – with ASPC1 cells (Cisbio pERK HTRF) was determined as 161 nM; with H727 cells (Cisbio pERK HTRF), 124 nM. Besides, the inhibition (commonly the change of the read-out against control, counted positive when it falls) at 0.1 µM is 1% with ASPC1 cells; 21% in the test on H727 cells; 35% in the test with A549 cells (single point at 100 nM, 3 hrs compound incubation); 53% in the test with H460 cells; 10% in the test on HCT116 cells; 70% in the test with H358 cells (NCI-H358, single point at 100 nM, 3 hrs compound incubation).

As for `CCc1c(F)ccc2cc(O)cc(N3CCc4c(nc(OC[C@@]56CCCN5C[C@H](F)C6)nc4N4CCCn5nc(C(C(F)F)N(C)C)cc5C4)C3)c12` (stereo partly drawn) [Example 263, 4-(4-(2-(1-(dimethylamino)-2,2-difluoroethyl)-7,8-dihydro-4H-pyrazolo[1,5-a][1,4]diazepin-5(6H)-yl)-2-(((2R,7aS)-2-fluorotetrahydro-1H-pyrrolizin-7a(5H)-yl)methoxy)-5,8-dihydropyrido[3,4-d]pyrimidin-7(6H)-yl)-5-ethyl-6-fluoronaphthalen-2-ol], the concentration for half-maximal inhibition (IC50) in the test on ASPC1 cells (Cisbio pERK HTRF) was determined as 5370 nM; in the test with H727 cells (Cisbio pERK HTRF) it was 8770 nM; at KRas G12D (setting [1]) it was 109 nM; at KRas G12R (setting [2]), 261 nM; on KRas G12V (setting [3]) it was 295 nM. Moreover, the values for the inhibition at 0.1 µM in the test with H460 cells and with HCT116 cells were -31% and -11%, respectively.

As for `CCc1c(F)ccc2cc(O)cc(N3CCc4c(nc(OC[C@@]56CCCN5C[C@H](F)C6)nc4N4CCn5cncc5C4)C3)c12` [Example 279, 4-(4-(5,6-dihydroimidazo[1,5-a]pyrazin-7(8H)-yl)-2-(((2R,7aS)-2-fluorohexahydro-1H-pyrrolizin-7a-yl)methoxy)-5,6-dihydropyrido[3,4-d]pyrimidin-7(8H)-yl)-5-ethyl-6-fluoronaphthalen-2-ol], the IC50 was greater than 10000 nM with ASPC1 cells (Cisbio pERK HTRF); 5080 nM in the test with H727 cells (Cisbio pERK HTRF); 93 nM at KRas G12D (setting [1]); 25 nM at KRas G12R (setting [2]); 22 nM on KRas G12V (setting [3]). The figures for the inhibition at 0.1 µM with H460 cells and with HCT116 cells were 0% and 4%, respectively.

For `CCc1c(F)ccc2cc(O)cc(N3CCc4c(nc(OC[C@@]56CCCN5C[C@H](F)C6)nc4N4CC(=O)Nc5cc(Br)ccc5C4)C3)c12` [Example 319, 8-bromo-4-(7-(8-ethyl-7-fluoro-3-hydroxynaphthalen-1-yl)-2-(((2R,7aS)-2-fluorotetrahydro-1H-pyrrolizin-7a(5H)-yl)methoxy)-5,6,7,8-tetrahydropyrido[3,4-d]pyrimidin-4-yl)-1,3,4,5-tetrahydro-2H-benzo[e][1,4]diazepin-2-one], the IC50 with ASPC1 cells (Cisbio pERK HTRF) worked out at 7080 nM; with H727 cells (Cisbio pERK HTRF), 3360 nM; on KRas G12D (setting [1]) it was 32800 nM; at KRas G12R (setting [2]) it was 6880 nM; at KRas G12V (setting [3]), 4620 nM. Moreover, the inhibition at 0.1 µM in the test with H460 cells is -10%; with HCT116 cells it was 8%.

Take `CCc1c(F)ccc2cc(O)cc(N3CCc4c(nc(OC[C@@]56CCCN5C[C@H](F)C6)nc4N4CCCn5nccc5C4)C3)c12` [Example 418, 4-(4-(7,8-dihydro-4H-pyrazolo[1,5-a][1,4]diazepin-5(6H)-yl)-2-(((2R,7aS)-2-fluorohexahydro-1H-pyrrolizin-7a-yl)methoxy)-5,6-dihydropyrido[3,4-d]pyrimidin-7(8H)-yl)-5-ethyl-6-fluoronaphthalen-2-ol]: the IC50 in the test on ASPC1 cells (Cisbio pERK HTRF) was determined as 117 nM; in the test on H727 cells (Cisbio pERK HTRF), 193 nM; in the test with A549 cells (Cisbio pERK HTRF), 236 nM; in the test with H460 cells (Cisbio pERK HTRF) it was 375 nM; in the test with HCT116 cells (Cisbio pERK HTRF), 787 nM; at KRas G12D (setting [1]), 3 nM. Moreover, the half-inhibitory concentration (IC50) on KRas G12R (setting [2]) was 2 nM; at KRas G12V (setting [3]) it was less than 2 nM.

Take `CCc1c(F)ccc2cc(OP(C)(C)=O)cc(N3CCc4c(nc(OC[C@@]56CCCN5C[C@H](F)C6)nc4N4CCCn5nc(NC)cc5C4)C3)c12` [Example 446, 5-ethyl-6-fluoro-4-(2-(((2R,7aS)-2-fluorohexahydro-1H-pyrrolizin-7a-yl)methoxy)-4-(2-(methylamino)-7,8-dihydro-4H-pyrazolo[1,5-a][1,4]diazepin-5(6H)-yl)-5,6-dihydropyrido[3,4-d]pyrimidin-7(8H)-yl)naphthalen-2-yl dimethylphosphinate]: the inhibition at 0.1 µM stood at 21% with ASPC1 cells, 13% in the test on H727 cells, 27% in the test with H460 cells and 0% in the test with HCT116 cells. The half-maximal inhibitory concentration (IC50) amounted to 12 nM at KRas G12D, 3 nM at KRas G12R and 9 nM on KRas G12V.

With `CCc1c(F)ccc2cc(O)cc(N3CCc4c(nc(N5CC(C)(N)C5)nc4N4CCCC5(C4)NC(=O)NC5=O)C3)c12` (centres unmarked) [Example 488, 7-(2-(3-amino-3-methylazetidin-1-yl)-7-(8-ethyl-7-fluoro-3-hydroxynaphthalen-1-yl)-5,6,7,8-tetrahydropyrido[3,4-d]pyrimidin-4-yl)-1,3,7-triazaspiro[4.5]decane-2,4-dione], the IC50 with ASPC1 cells (Cisbio pERK HTRF) is greater than 10000 nM; in the test on H727 cells (Cisbio pERK HTRF) it was 7510 nM; at KRas G12D (setting [1]), 20 nM; at KRas G12R (setting [2]), 13 nM; on KRas G12V (setting [3]) it was 9 nM. The inhibition at 0.1 µM in the test on ASPC1 cells was 13%; in the test on H727 cells it was 5%; in the test with H460 cells, 14%; in the test on HCT116 cells, -1%.

For the compound `CCc1c(F)ccc2cc(O)cc(N3CCc4c(nc(OC[C@@]56CCCN5C[C@H](F)C6)nc4N4CCCn5nc(C(=O)N6CC7(CNC7)C6)cc5C4)C3)c12` [Example 505, (5-(7-(8-ethyl-7-fluoro-3-hydroxynaphthalen-1-yl)-2-(((2R,7aS)-2-fluorohexahydro-1H-pyrrolizin-7a-yl)methoxy)-5,6,7,8-tetrahydropyrido[3,4-d]pyrimidin-4-yl)-5,6,7,8-tetrahydro-4H-pyrazolo[1,5-a][1,4]diazepin-2-yl)(2,6-diazaspiro[3.3]heptan-2-yl)methanone], the IC50 was found to be 128 nM in the test on ASPC1 cells (Cisbio pERK HTRF) and 1080 nM with H727 cells (Cisbio pERK HTRF). In addition, the inhibition at 0.1 µM in the test with ASPC1 cells is 30%; in the test with H727 cells, 26%; in the test on H460 cells it was 0%; with HCT116 cells, 7%.

Turning to `CCc1c(F)ccc2cc(O)cc(N3CCc4c(nc(OC[C@@]56CCCN5C[C@H](F)C6)nc4N4CCCn5nc(C(=O)N6CC[C@H]7CC[C@@H]6C7)cc5C4)C3)c12` [Example 617, ((1R,5R)-2-azabicyclo[3.2.1]octan-2-yl)(5-(7-(8-ethyl-7-fluoro-3-hydroxynaphthalen-1-yl)-2-(((2R,7aS)-2-fluorotetrahydro-1H-pyrrolizin-7a(5H)-yl)methoxy)-5,6,7,8-tetrahydropyrido[3,4-d]pyrimidin-4-yl)-5,6,7,8-tetrahydro-4H-pyrazolo[1,5-a][1,4]diazepin-2-yl)methanone], the IC50 was found to be 13 nM in the test on ASPC1 cells; 15 nM in the test on H727 cells; 27 nM in the test with A549 cells; 40 nM with H460 cells; 115 nM in the test on HCT116 cells; 8 nM in the test with H358 cells (NCI-H358, 3 h, 3 hr compound incubation).
